Results taken from patent publication US6576670B1, “Use of a 5HT2A and 5HT2A/C receptor antagonist for treating snoring and high resistance syndrome of upper anatomical airways” (Sanofi—Synthelabo, priority 1998, dated 2003).
Where two headings read alike, the source gives them in different places.

Experiments:
5HT2 receptor [1] = conditions: rats; cited from earlier work
[2] = decerebrated newborn rats; cited from earlier work
[3] = decerebrated newborn cats; high doses; cited from earlier work
5HT1B receptor = 5HT1B receptor (Homo sapiens, UniProt P28222); conditions: cited from earlier work
5HT1B receptor, sequence (P28222 whole entry): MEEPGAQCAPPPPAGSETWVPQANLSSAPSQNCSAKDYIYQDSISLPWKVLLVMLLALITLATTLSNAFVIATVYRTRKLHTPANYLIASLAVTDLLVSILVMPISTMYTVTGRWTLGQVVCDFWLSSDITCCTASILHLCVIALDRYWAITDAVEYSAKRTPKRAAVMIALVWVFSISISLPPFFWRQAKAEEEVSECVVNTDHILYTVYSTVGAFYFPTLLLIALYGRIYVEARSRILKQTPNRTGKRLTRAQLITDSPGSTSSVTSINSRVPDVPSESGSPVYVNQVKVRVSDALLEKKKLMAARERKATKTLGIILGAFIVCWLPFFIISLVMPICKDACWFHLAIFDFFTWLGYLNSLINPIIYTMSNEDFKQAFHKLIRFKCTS

[4] = test system: upper airway high resistance syndrome; assay: double blind clinical study versus placebo in upper airway high resistance syndrome; format: in vivo, human; conditions: patients; gelatin capsule, for example 5 mg, daily with the evening meal
Description: The effect of compound A is determined during a clinical study carried out according to a double blind design versus placebo in which patients with upper airway high resistance syndrome characterized by the presence of respiratory efforts with repeated wakefulness or microwakefulness and clinical symptoms such as diurnal somnolence and/or hypertension and/or fatigue and/or morning headache and/or nycturia, and the like took part. One gelatin capsule containing an active dose of compound A, for example 5 mg, is administered daily with the evening meal.

5HT1A receptor = molecular target: T1, 5HT1A receptor (Homo sapiens, UniProt P08908); conditions: cited from earlier work
T1 sequence (P08908 1-422): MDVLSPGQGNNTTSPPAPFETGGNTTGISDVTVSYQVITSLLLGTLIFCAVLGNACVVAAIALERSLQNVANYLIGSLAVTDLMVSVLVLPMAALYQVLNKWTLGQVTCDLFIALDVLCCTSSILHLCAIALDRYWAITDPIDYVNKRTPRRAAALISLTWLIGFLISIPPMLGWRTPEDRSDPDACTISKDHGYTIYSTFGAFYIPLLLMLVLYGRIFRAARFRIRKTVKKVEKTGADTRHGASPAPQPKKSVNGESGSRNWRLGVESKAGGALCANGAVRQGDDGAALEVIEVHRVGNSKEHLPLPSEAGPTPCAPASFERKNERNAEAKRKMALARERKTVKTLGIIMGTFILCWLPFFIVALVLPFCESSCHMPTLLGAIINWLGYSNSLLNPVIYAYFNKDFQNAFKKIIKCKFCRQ

5HT1D receptor = conditions: cited from earlier work
5HT2C receptor = molecular target: T2, 5HT2C receptor (Homo sapiens, UniProt P28335); conditions: cited from earlier work
T2 sequence (P28335 33-458): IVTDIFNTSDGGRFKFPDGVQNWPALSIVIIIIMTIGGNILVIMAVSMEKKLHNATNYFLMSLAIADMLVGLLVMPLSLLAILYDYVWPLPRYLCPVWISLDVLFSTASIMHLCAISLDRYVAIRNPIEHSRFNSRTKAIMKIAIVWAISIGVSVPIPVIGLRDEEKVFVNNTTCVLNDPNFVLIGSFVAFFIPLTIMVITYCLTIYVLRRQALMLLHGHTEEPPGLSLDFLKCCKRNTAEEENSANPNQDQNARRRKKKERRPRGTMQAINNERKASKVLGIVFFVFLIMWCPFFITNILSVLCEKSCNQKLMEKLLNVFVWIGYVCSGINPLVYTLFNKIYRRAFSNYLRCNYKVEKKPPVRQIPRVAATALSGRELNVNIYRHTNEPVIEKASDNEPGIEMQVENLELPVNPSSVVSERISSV

spinal 5HT2 receptors = conditions: newborn rat tissue preparations in vitro, cited from earlier work
slow wave sleep = assay: sleep study in young healthy subjects; format: in vivo, human; conditions: young (18 to 35 years old) healthy subjects
[5] = molecular target: T3, rat stomach fundus (5HT2B) (Rattus norvegicus, UniProt P30994); conditions: isolated tissue; indicates 5HT2A specificity versus 5HT2B; cited from earlier work
T3 construct: from tissue; host or cells: rat stomach fundus (isolated tissue)
T3 sequence (P30994 whole entry): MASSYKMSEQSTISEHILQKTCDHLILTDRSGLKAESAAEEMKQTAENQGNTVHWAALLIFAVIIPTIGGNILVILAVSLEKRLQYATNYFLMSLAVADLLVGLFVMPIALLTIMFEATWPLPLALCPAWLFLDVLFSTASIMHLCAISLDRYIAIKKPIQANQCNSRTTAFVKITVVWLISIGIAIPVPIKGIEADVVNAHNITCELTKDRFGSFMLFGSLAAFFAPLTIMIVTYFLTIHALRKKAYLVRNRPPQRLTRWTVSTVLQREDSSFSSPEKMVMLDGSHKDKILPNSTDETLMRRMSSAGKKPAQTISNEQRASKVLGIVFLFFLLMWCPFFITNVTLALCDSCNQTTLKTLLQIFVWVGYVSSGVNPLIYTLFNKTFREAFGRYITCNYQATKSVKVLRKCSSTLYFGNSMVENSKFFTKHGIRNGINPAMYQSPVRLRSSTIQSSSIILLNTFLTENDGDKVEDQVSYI

5HT2 receptor [6] = conditions: rodents; cited from earlier work
5HT2A receptor = 5HT2A receptor (Homo sapiens, UniProt P28223); conditions: cited from earlier work
5HT2A receptor, sequence (P28223 whole entry): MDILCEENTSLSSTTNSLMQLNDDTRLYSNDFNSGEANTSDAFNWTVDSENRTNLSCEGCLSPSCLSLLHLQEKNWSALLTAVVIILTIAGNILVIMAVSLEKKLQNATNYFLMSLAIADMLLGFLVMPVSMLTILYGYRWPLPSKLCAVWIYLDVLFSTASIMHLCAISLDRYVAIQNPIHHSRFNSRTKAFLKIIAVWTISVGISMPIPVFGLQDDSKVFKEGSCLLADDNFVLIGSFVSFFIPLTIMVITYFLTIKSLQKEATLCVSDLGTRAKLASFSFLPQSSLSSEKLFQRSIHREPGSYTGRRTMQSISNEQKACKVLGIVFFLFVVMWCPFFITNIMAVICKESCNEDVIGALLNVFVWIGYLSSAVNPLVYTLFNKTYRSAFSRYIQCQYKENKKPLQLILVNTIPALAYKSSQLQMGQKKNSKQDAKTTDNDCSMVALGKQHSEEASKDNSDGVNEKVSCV

5HT2 receptor [7] = conditions: in vivo; cited from earlier work
5HT2 receptors = conditions: administered systemically; English bulldog; cited from earlier work

O=C(c1ccc(F)cc1)C1CCN(CCn2c(=O)[nH]c3ccccc3c2=O)CC1 [ketanserin]
apnea induced by 5-HT (5HT2 receptor [1]): inhibit
increase in pulmonary resistance induced by 5-HT (5HT2 receptor [1]): inhibit

NCCc1c[nH]c2ccc(O)cc12 [5-hydroxytryptamine]
apnea after administration [2]: no apnea
apnea after administration [3]: induced prolonged central apneas

CN(C)CCO/N=C(/C=C/c1ccc(O)cc1)c1ccccc1F [compound A, (1Z,2E)-1-(2-fluorophenyl)-3-(4-hydroxyphenyl)prop-2-en-1-one-O-(2-dimethylaminoethyl)oxime hemifumarate]
affinity for the 5HT1B receptor (5HT1B receptor): no affinity
clinical symptoms [4]: reduction
number of wakings or microwakings [4]: marked reduction
respiratory efforts [4]: marked reduction
affinity for the 5HT1A receptor (5HT1A receptor): no affinity
affinity for the 5HT1D receptor (5HT1D receptor): no affinity
affinity for the 5HT2C receptor (5HT2C receptor): moderate affinity
depressant effect of 5-hydroxytryptamine on the activity of the hypoglossal nerve (spinal 5HT2 receptors): inhibits
tonic cervical activity induced by 5-hydroxytryptamine (spinal 5HT2 receptors; pretreatment): prevents or significantly reduces
paradoxical sleep (slow wave sleep): not being modified
stages 1 and 2 of slow wave sleep (slow wave sleep): slightly reduced
duration of stages 3 and 4 of slow wave sleep (slow wave sleep; from the dose of 1 mg): doubling
activity on rat stomach fundus [5]: absence of activity
binding in the brain (5HT2 receptor [6]): predominantly binds to the regions of the brain containing the 5HT2 receptor
antagonism of the 5HT2A receptor (5HT2A receptor): antagonist which is specific for the 5HT2A receptor

CN(C)CCSc1nc2ccccc2cc1-c1ccccc1 [ICI 169 369]
slow wave sleep time (5HT2 receptor [7]): regulate or increase

Cc1nc2sccn2c(=O)c1CCN1CCC(=C(c2ccc(F)cc2)c2ccc(F)cc2)CC1 [ritanserin]
activity of the diaphragm (5HT2 receptors): slight reduction
activity of the dilatory muscle of the upper respiratory tracts (5HT2 receptors): marked reduction
slow wave sleep time (5HT2 receptor [7]): regulate or increase
